From US20160223554A1, “METHODS FOR DIAGNOSIS, PROGNOSIS AND METHODS OF TREATMENT” (priority 2011, published 2016)

Key:
Format in all cases: cell-based, human
AML blasts [1] = assay: In vitro drug-induced apoptosis (c-PARP, amine aqua) in primary AML samples (Example 20); settings: for Apo: 48 hour treatment
Description: (§1) Cryopreserved peripheral blood (PBMC) or bone marrow (BMMC) mononuclear cells were obtained from patients with a new diagnosis of AML treated at British Columbia Cancer Agency or Lucile Packard Children's Hospital at Stanford University. All patients provided informed consent for research purposes. Samples were processed (thawed, modulated, fixed, permeabilized, and incubated with antibodies to both surface and intracellular proteins) as previously described (Kornblau, Minden et al., Dynamic single-cell network profiles in acute myelogenous leukemia are associated with patient response to standard induction therapy, 2010, Journal/Clin Cancer Res, 16, 14, 3721-3733; Rosen, Minden et al., Functional characterization of FLT3 receptor signaling deregulation in acute myeloid leukemia by single cell network profiling (SCNP), 2010, Journal/PLoS One, 5, 10, e13543). In this study, cellular DNA damage repair (DDR) and apoptosis were measured simultaneously in AML blasts after exposure to chemotherapeutic agents. Antibodies against phosphorylated (p)-H2AX or p-Chk2 were used to measure the DDR to DSB, while simultaneous measurements of cleaved PARP (c-PARP) and amine aqua viability dye were used to quantify apoptosis and cell death. Chemotherapeutics included Ara-C/Dauno (the two drugs currently used in standard AML induction therapy), Gemtuzumab Ozogamicin (GO), and three other agents currently being evaluated in AML clinical trials [Decitabine (DEC), 5-azacytidine (AZA) and Clofarabine (CLO)]. […] Drug-specific incubation times were chosen to analyze both DDR and apoptosis readouts: Ara-C/Dauno (24 hours), GO, CLO, AZA, DEC (48 hours). […] Similarly, apoptosis responses were not observed for DEC until 48 hours and were higher for AZA at 48 hours (data not shown). PI3Kinase/Akt and Raf/Ras pathway activities were assessed using stem cell factor (SCF) induced p-Akt and p-Erk readouts. Data was acquired on an LSRII flow cytometer and leukemic cells were identified by CD45 versus right-angle light-scatter. Metrics for DDR (Log2Fold) and induced apoptosis have been described previously (Rosen, Putta et al., Distinct patterns of DNA damage response and apoptosis correlate with Jak/Stat and PI3kinase response profiles in human acute myelogenous leukemia, 2010, Journal/PLoS One, 5, 8, e12405).

AML blasts [2] = assay: DNA damage response (p-H2AX, p-Chk2) to chemotherapeutics in primary AML samples (Example 20); settings: primary AML samples
Description: as §1

AML blasts [3] = assay: SCNP signaling and apoptosis nodes in AML BMMC (Example 4, Study No. 2)
AML blasts [4] = assay: SCNP phospho-flow signaling nodes in AML PBMC (Example 2, Study No. 1); settings: for Mean Value of CRs: CR patients; for Mean Value of CRs / Mean Value of NRs: Study No. 1; for Mean Value of NRs: NR patients
Description: Frozen cells are thawed in a 37° C. water bath and gently resuspended in the vial and transferred to the 15 mL conical tube. The 15 mL tube is centrifuged at 930 RPM (200×g) for 8 minutes at room temperature. The supernatant is aspirated and the pellet is gently resuspended in 1 mL media A. The cell suspension is filtered through a 70 um cell strainer into a new 15 mL tube. The cell strainer is rinsed with 1 mL media A and another 12 ml of media A into the 15 mL tube. The cells are mixed into an even suspension. A 20 μL aliquot is immediately removed into a 96-well plate containing 180 μL PBS+4% FBS+CD45 Alexa 700+PI to determine cell count and viability post spin. After the determination, the 15 mL tubes are centrifuged at 930 RPM (200×g) for 8 minutes at room temperature. The supernatant is aspirated and the cell pellet is gently resuspended in 4 mL PBS+4 μL Amine Aqua and incubated for 15 min in a 37° C. incubator. 10 mL RPMI+1% FBS is added to the cell suspension and the tube is inverted to mix the cells. The 15 mL tubes are centrifuged at 930 RPM (200×g) for 8 minutes at room temperature. The cells are resuspended in Media A at the desired cell concentration (1.25×10^6/mL). For samples with low numbers of cells (<18.5×10^6), the cells are resuspended in up to 15 mL media. For samples with high numbers of cells (>18.5×10^6), the volume is raised to 10 mL with media A and the desired volume is transferred to a new 15 mL tube, and the cell concentration is adjusted to 1.25×10^6 cells/ml. 1.6 mL of the above cell suspension (concentration at 1.25×10^6 cells/ml) is transferred into wells of a multi-well plate. From this plate, 80 ul is dispensed into each well of a subsequent plate. The plates are covered with a lid (Nunc) and placed in a 37° C. incubator for 2 hours to rest.
A concentration for each stimulant that is five folds more (5×) than the final concentration is prepared using Media A as diluent. 5× stimuli are arrayed into wells of a standard 96 well v-bottom plate that correspond to the wells on the plate with cells to be stimulated.
Adding the stimulant: The cell plate(s) are taken out of the incubator and placed in a 37° C. water bath next to the pipette apparatus. The cell plate is taken from the water bath and gently swirled to resuspend any settled cells. With pipettor, the stimulant is dispensed into the cell plate and vortexed at “7” for 5 seconds. The deep well plate is put back into the water bath.
The plate is covered with foil sealer and incubated in a 37° C. water bath for 10 minutes. The plate is spun for 6 minutes at 2000 rpm at room temperature. The cells are aspirated using a 96 well plate aspirator (VP Scientific). The plate is vortexed to resuspend cell pellets in the residual volume. The pellet is ensured to be dispersed before the Methanol step (see cell permeabilization) or clumping will occur.
Cell Permeabilization: Permeability agent, for example methanol, is added slowly and while the plate is vortexing. To do this, the cell plate is placed on titer plate shaker and made sure it is secure. The plate is set to shake using the highest setting. A pipetter is used to add 0.6 mls of 100% methanol to the plate wells. The plate(s) are put on ice until this step has been completed for all plates. Plates are covered with a foil seal using the plate roller to achieve a tight fit. At this stage the plates can be stored at −80° C.
Cells are thawed if frozen. Cells are pelleted at 2000 rpm 5 minutes. Supernatant is aspirated with vacuum aspirator. Plate is vortexed on a “plate vortex” for 5-10 seconds. Cells are washed with 1 mL FACS buffer. Repeat the spin, aspirate and vortex steps as above. 50 μL of FACS/stain buffer with the desired, previously optimized, antibody cocktail is added to two rows of cells at a time and agitate the plate. The plate is covered and incubated in a shaker for 30 minutes at room temperature (RT). During this incubation, the compensation plate is prepared.

[5] = Fold metric, all patients, Study No. 2
[6] = Study No.2, patients less than 60 years old
[7] = Study No.2, patients with De Novo AML
[8] = Total Phospho metric, Study No. 1, CRp patient included in NR group
[9] = read-out p-Stat1, metric TotalPhospho
[10] = read-out p-Stat3, metric TotalPhospho
[11] = Study No.2, patients age 60 and older
[12] = Fold metric, Study No. 1, CRp patient included in NR group

For `Nc1ncn([C@@H]2O[C@H](CO)[C@@H](O)[C@H]2O)c(=O)n1` [AZA, 5-azacytidine], the “cells induced to undergo apoptosis” value (AML blasts [1]; sample COG-06 (MDR+), 48 hours, CLO 0.25 μM, AZA 2.5 μM, DEC 0.625 μM) was 77.5%, the Apo (AML blasts [1]; sample COG-06) was “+ (For Apo, “+” signifies induced apoptosis >50%.)” and the cells undergoing apoptosis (AML blasts [1]; sample COG-07, 48 hours, CLO 0.25 μM, AZA 2.5 μM, DEC 0.625 μM) was 32%. The Apo (AML blasts [1]; sample COG-09) was “+ (For Apo, “+” signifies induced apoptosis >50%.)”, the apoptotic cells (AML blasts [1]; sample COG-09, 48 hours, CLO 0.25 μM, AZA 2.5 μM, DEC 0.625 μM) was 57% and the “timing of induced DNA damage (pH2AX) relative to apoptosis” value (AML blasts [2]) was “coincident with apoptosis”.

`C/C=C/C[C@@H](C)C(=O)[C@H]1C(=O)N[C@@H](C(C)C)C(=O)N(C)CC(=O)N(C)[C@@H](CC(C)C)C(=O)N[C@@H](C(C)C)C(=O)N(C)[C@@H](CC(C)C)C(=O)N[C@@H](C)C(=O)N[C@H](C)C(=O)N(C)[C@@H](CC(C)C)C(=O)N(C)[C@@H](CC(C)C)C(=O)N(C)[C@@H](C(C)C)C(=O)N1C` [PSC833] was tested, and the “effect of co-treatment on GO-induced apoptosis” value (AML blasts [1]; sample COG-06, resistant to Ara-C/Dauno and GO, co-treatment with GO) was “substantially sensitized the leukemic cells to GO-induced apoptosis”.

With IL-10: cytokine modulator the “Mean Value of CRs, p-Stat3” value (AML blasts [3]; [5]) was 0.08, the “Mean Value of CRs, p-Stat5” value (AML blasts [3]; [5]) was 0.09 and the “Mean Value of NRs, p-Stat3” value (AML blasts [3]; [5]) was 0.39. The “Mean Value of NRs, p-Stat5” value (AML blasts [3]; [5]) was 0.43, the “Mean Value of CRs, p-Stat3 TotalPhospho” value (AML blasts [3]; [6]) was 1.67 and the “Mean Value of NRs, p-Stat3 TotalPhospho” value (AML blasts [3]; [6]) was 2.90. For the same molecule, the “Mean Value of CRs, p-Stat3 Fold” value (AML blasts [3]; [7]) was 0.05, the “Mean Value of CRs, p-Stat3 TotalPhospho” value (AML blasts [3]; [7]) was 1.63 and the “Mean Value of CRs, p-Stat5 Fold” value (AML blasts [3]; [7]) was 0.0. The “Mean Value of NRs, p-Stat3 Fold” value (AML blasts [3]; [7]) was 0.45, the “Mean Value of NRs, p-Stat3 TotalPhospho” value (AML blasts [3]; [7]) was 2.68 and the “Mean Value of NRs, p-Stat5 Fold” value (AML blasts [3]; [7]) was 0.43. For the same molecule, the “Mean Value of CRs, p-Stat3” value (AML blasts [4]; [8]) was 0.72, the “Mean Value of NRs, p-Stat3” value (AML blasts [4]; [8]) was 1.69 and the “Mean Value of CRs” value (AML blasts [4]; [9]) was 0.20. For the same molecule, the “Mean Value of NRs” value (AML blasts [4]; [9]) was 0.47, the “Mean Value of CRs” value (AML blasts [4]; [10]) was 0.82 and the “Mean Value of NRs” value (AML blasts [4]; [10]) was 1.69.

With `OO` [H2O2, reference compound] the “Mean Value of CRs, p-Akt” value (AML blasts [3]; [5]) was 0.68, the “Mean Value of NRs, p-Akt” value (AML blasts [3]; [5]) was 0.91 and the “Mean Value of CRs, p-Akt Fold” value (AML blasts [3]; [11]) was 0.45. For the same molecule, the “Mean Value of CRs, p-Akt TotalPhospho” value (AML blasts [3]; [11]) was 0.84, the “Mean Value of CRs, p-Plcγ2 TotalPhospho” value (AML blasts [3]; [11]) was 1.19 and the “Mean Value of NRs, p-Akt Fold” value (AML blasts [3]; [11]) was 0.88. For the same molecule, the “Mean Value of NRs, p-Akt TotalPhospho” value (AML blasts [3]; [11]) was 1.33, the “Mean Value of NRs, p-Plcγ2 TotalPhospho” value (AML blasts [3]; [11]) was 1.86 and the “Mean Value of CRs” value (AML blasts [4]; read-out p-Lck, metric Fold) was 0.42. For the same molecule, the “Mean Value of NRs” value (AML blasts [4]; read-out p-Lck, metric Fold) was 0.12, the “Mean Value of CRs” value (AML blasts [4]; read-out p-SLP 76, metric Fold) was 1.35 and the “Mean Value of NRs” value (AML blasts [4]; read-out p-SLP 76, metric Fold) was 0.08.

B1: IFNg: cytokine modulator of Jak/Stat pathway (protein, UniProt P01579 24-161, looked up)
Interferon gamma: QDPYVKEAENLKKYFNAGHSDVADNGTLFLGILKNWKEESDRKIMQSQIVSFYFKLFKNFKDDQSIQKSVETIKEDMNVKFFNSNKKKRDDFEKLTNYSVTDLNVQRKAIHELIQVMAELSPAAKTGKRKRSQMLFRG
In the case of B1, the “Mean Value of CRs, p-Stag” value (AML blasts [3]; [5]) is reported as −0.02, the “Mean Value of NRs, p-Stag” value (AML blasts [3]; [5]) is reported as 0.2 and the “Mean Value of CRs, p-Stat1 Fold” value (AML blasts [3]; [6]) is reported as 1.35. For the same molecule, the “Mean Value of CRs, p-Stat1 TotalPhospho” value (AML blasts [3]; [6]) was 2.40, the “Mean Value of CRs, p-Stat3 TotalPhospho” value (AML blasts [3]; [6]) was 1.60 and the “Mean Value of CRs, p-Stat5 Fold” value (AML blasts [3]; [6]) was 0.68. For the same molecule, the “Mean Value of NRs, p-Stat1 Fold” value (AML blasts [3]; [6]) was 2.96, the “Mean Value of NRs, p-Stat1 TotalPhospho” value (AML blasts [3]; [6]) was 4.13 and the “Mean Value of NRs, p-Stat3 TotalPhospho” value (AML blasts [3]; [6]) was 2.71. For the same molecule, the “Mean Value of NRs, p-Stat5 Fold” value (AML blasts [3]; [6]) was 1.67, the “Mean Value of CRs, p-Stat3 Fold” value (AML blasts [3]; [7]) was −0.04 and the “Mean Value of CRs, p-Stat3 TotalPhospho” value (AML blasts [3]; [7]) was 1.59. For the same molecule, the “Mean Value of NRs, p-Stat3 Fold” value (AML blasts [3]; [7]) was 0.24, the “Mean Value of NRs, p-Stat3 TotalPhospho” value (AML blasts [3]; [7]) was 2.48 and the “Mean Value of CRs, p-Stat1” value (AML blasts [4]; [12]) was 0.45. For the same molecule, the “Mean Value of NRs, p-Stat1” value (AML blasts [4]; [12]) was 0.91, the “Mean Value of CRs, p-Stat1” value (AML blasts [4]; [8]) was 0.67 and the “Mean Value of CRs, p-Stat3” value (AML blasts [4]; [8]) was 0.68. The “Mean Value of CRs, p-Stat5” value (AML blasts [4]; [8]) was 1.62, the “Mean Value of NRs, p-Stat1” value (AML blasts [4]; [8]) was 1.27 and the “Mean Value of NRs, p-Stat3” value (AML blasts [4]; [8]) was 1.3. For the same molecule, the “Mean Value of NRs, p-Stat5” value (AML blasts [4]; [8]) was 2.35, the “Mean Value of CRs” value (AML blasts [4]; read-out p-Stat1, metric Fold) was 0.53 and the “Mean Value of NRs” value (AML blasts [4]; read-out p-Stat1, metric Fold) was 0.90. The “Mean Value of CRs” value (AML blasts [4]; [10]) was 0.74 and the “Mean Value of NRs” value (AML blasts [4]; [10]) was 1.30.
